Reference: PMC12096079, “m^6A modification is incorporated into bacterial mRNA without specific functional benefit” (Nucleic Acids Research, 2025)

Biological target: YafS (Escherichia coli, UniProt P75672)
Experiment: intrinsic tryptophan fluorescence quenching titration (ex […] nm, em […] nm)
Format: binding

Sequence of YafS (P75672 whole entry): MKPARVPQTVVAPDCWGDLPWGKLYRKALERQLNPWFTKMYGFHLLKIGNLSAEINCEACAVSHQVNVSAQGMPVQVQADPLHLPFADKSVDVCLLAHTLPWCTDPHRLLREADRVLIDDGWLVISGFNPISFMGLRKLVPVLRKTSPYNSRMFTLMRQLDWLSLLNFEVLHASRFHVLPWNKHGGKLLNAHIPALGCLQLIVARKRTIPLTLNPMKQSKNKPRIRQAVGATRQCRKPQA

C[S+](CC[C@H](N)C(=O)O)C[C@H]1O[C@@H](n2cnc3c(N)ncnc32)[C@H](O)[C@@H]1O (stereo partly shown) [SAM]
Kd: 680 ± 100 nM
